The target in the assay is KRasG12C (M1-K169, biotinylated on the N-terminus) (Homo sapiens (Human), UniProt P01116, G12C). Put plainly: Covalent competition assay: scintillation proximity assay (SPA) quantifying covalent modification of KRASG12C. The class given is binding. To be noted: competition with radiolabeled covalent probe (Compound B/Compound A), 2 hours incubation, 10 nM KRasG12C. Summed up: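 Test compounds compete with a radiolabeled covalent probe for modification of N-terminally biotinylated KRasG12C(M1-K169):GDP, final 10 nM protein, 25 nM radio-ligand, 475 nM unlabelled ligand, 2 h with agitation in 20 mM Tris-HCl pH 7.5, 150 mM NaCl, 0.1 mM MgCl2, 0.01% Tween-20.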
The IC50 is the concentration that inhibits the measured activity by half. `C=CC(=O)N1CC2(CC(n3nc(N4CC[C@@H](CN5CCOC6(C5)CN(C(C)=O)C6)CC4(C)C)c(-c4c(Cl)c(Cl)cc5[nH]ncc45)c3C)C2)C1` (single isomer, unassigned) [Example 311a]: the IC50 stood at 1300 nM.
Regarding `C=CC(=O)N1CC2(CC(n3nc(N4CCN(C5COC5)CC45CCC5)c(-c4c(Cl)c(C)cc5[nH]nc(N)c45)c3C)C2)C1` (single isomer, unassigned) [Example 114b, 1-(6-(4-(3-amino-5-chloro-6-methyl-1H-indazol-4-yl)-5-methyl-3-(8-(oxetan-3-yl)-5,8-diazaspiro[3.5]nonan-5-yl)-1H-pyrazol-1-yl)-2-azaspiro[3.3]heptan-2-yl)prop-2-en-1-one], the half-inhibitory concentration (IC50) was 337 nM.
For `C=CC(=O)N1CC2(CC(n3nc(N4CCN(C(C)=O)CC4)c(-c4c(Cl)ccc5[nH]ncc45)c3C)C2)C1C` (single isomer, unassigned) [Example 195a, 1-(6-(3-(4-Acetylpiperazin-1-yl)-4-(5-chloro-1H-indazol-4-yl)-5-methyl-1H-pyrazol-1-yl)-1-methyl-2-azaspiro[3.3]heptan-2-yl)prop-2-en-1-one], the IC50 amounted to 10400 nM.
Turning to `C=CC(=O)N1CC2(CC(n3nc(N4CCN(CC(C)(C)O)CC45CCCC5)c(-c4c(Cl)c(C)cc5[nH]ncc45)c3C)C2)C1` (single isomer, unassigned) [Example 165b, 1-(6-(4-(5-chloro-6-methyl-1H-indazol-4-yl)-3-(9-(2-hydroxy-2-methylpropyl)-6,9-diazaspiro[4.5]decan-6-yl)-5-methyl-1H-pyrazol-1-yl)-2-azaspiro[3.3]heptan-2-yl)prop-2-en-1-one], the IC50 came to 26 nM.
For the molecule `C=CC(=O)N1CC2(CC(n3nc(N4CCC(O)CC4(C)C)c(-c4c(Cl)c(C)cc5[nH]ncc45)c3C)C2)C1` (single isomer, unassigned) [Example 29a, 1-(6-(4-(5-chloro-6-methyl-1H-indazol-4-yl)-3-(4-hydroxy-2,2-dimethylpiperidin-1-yl)-5-methyl-1H-pyrazol-1-yl)-2-azaspiro[3.3]heptan-2-yl)prop-2-en-1-one], the IC50 was above 5000 nM.
For `C=CC(=O)N1CC2(CC(n3nc(N4CCN(C(C)=O)CC45CCC5)c(-c4c(Cl)c(C)cc5[nH]ncc45)c3C)C2)C1` (single isomer, unassigned) [Example 21b, 1-(6-(3-(8-acetyl-5,8-diazaspiro[3.5]nonan-5-yl)-4-(5-chloro-6-methyl-1H-indazol-4-yl)-5-methyl-1H-pyrazol-1-yl)-2-azaspiro[3.3]heptan-2-yl)prop-2-en-1-one], the IC50 stood at 17 nM.
With `C=CC(=O)N1CC2(CC(n3nc(N4CC[C@@H](CN5CCOCC56COC6)CC4(C)C)c(-c4c(C)c(Cl)cc5[nH]ncc45)c3C)C2)C1` (single isomer, unassigned) [Example 302b], the IC50 was determined as 10 nM.
Next, `[2H]C([2H])([2H])c1c(-c2c(Cl)c(Cl)cc3[nH]ncc23)c(N2CC[C@@H](CN3CCOCC3)CC2(C)C)nn1C1CC2(C1)CN(C(=O)C=C)C2` (single isomer, unassigned) [Example 224b]: 12 nM.
Consider `C=CC(=O)N1CC2(CC(n3nc(N4CC[C@@H](CN5CCOCC5)CC4(C)C)c(-c4c(Cl)c(Cl)cc5[nH]nc(N)c45)c3C)C2)C1` (single isomer, unassigned) [Example 241b], for which the 50% inhibitory concentration (IC50) was determined as 536 nM.
Take `C=CC(=O)N1CC2(CC(n3nc(N4CCN(CC(C)(C)O)CC45CCC5)c(-c4c(Cl)c(F)cc5[nH]ncc45)c3C)C2)C1` (single isomer, unassigned) [Example 167b, 1-(6-(4-(5-chloro-6-fluoro-1H-indazol-4-yl)-3-(8-(2-hydroxy-2-methylpropyl)-5,8-diazaspiro[3.5]nonan-5-yl)-5-methyl-1H-pyrazol-1-yl)-2-azaspiro[3.3]heptan-2-yl)prop-2-en-1-one]: the concentration for half-maximal inhibition (IC50) worked out at 31 nM.
As to `C=CC(=O)N1CC2(CC(n3nc(N4CC(=O)N(C)CC45CCC5)c(-c4c(Cl)c(C)cc5[nH]ncc45)c3C)C2)C1` (single isomer, unassigned) [Example 65a, 5-(1-(2-acryloyl-2-azaspiro[3.3]heptan-6-yl)-4-(5-chloro-6-methyl-1H-indazol-4-yl)-5-methyl-1H-pyrazol-3-yl)-8-methyl-5,8-diazaspiro[3.5]nonan-7-one], the IC50 was above 5000 nM.
Take `C=CC(=O)N1CC2(CC(n3nc(N4CCC(CN5C[C@@H]6C[C@H]5CO6)CC4(C)C)c(-c4c(Cl)c(Cl)cc5[nH]ncc45)c3C)C2)C1` (single isomer, unassigned) [Example 217b]: the half-maximal inhibitory concentration (IC50) was found to be 8 nM.
As to `C=CC(=O)N1CC2(CC(n3nc(N4CCN(CC5(O)CC5)CC45CCC5)c(-c4c(Cl)c(C)cc5[nH]ncc45)c3C)C2)C1` (single isomer, unassigned) [Example 154b, 1-(6-(4-(5-chloro-6-methyl-1H-indazol-4-yl)-3-(8-((1-hydroxycyclopropyl)methyl)-5,8-diazaspiro[3.5]nonan-5-yl)-5-methyl-1H-pyrazol-1-yl)-2-azaspiro[3.3]heptan-2-yl)prop-2-en-1-one], the concentration for half-maximal inhibition (IC50) was 22 nM.
Regarding `C=CC(=O)N1CC2(CC(n3nc(N4CCN(C(=O)C5CC5)CC4(C)C)c(-c4c(Cl)c(C)cc5[nH]ncc45)c3C)C2)C1` (single isomer, unassigned) [Example 127a, 1-(6-(4-(5-chloro-6-methyl-1H-indazol-4-yl)-3-(4-(cyclopropanecarbonyl)-2,2-dimethylpiperazin-1-yl)-5-methyl-1H-pyrazol-1-yl)-2-azaspiro[3.3]heptan-2-yl)prop-2-en-1-one], the IC50 came to 25200 nM.
Regarding `C=CC(=O)N1CC2(CC(n3nc(N4CC[C@@H](CN5CC6CC(C5)N6C(C)=O)CC4(C)C)c(-c4c(Cl)c(Cl)cc5[nH]ncc45)c3C)C2)C1` (single isomer, unassigned) [Example 301a], the IC50 worked out at 1900 nM.
Regarding `C=CC(=O)N1CC2(CC(n3nc(N4CCN(C5COC5)CC45CCC5)c(-c4c(C)c(O)cc(C)c4Cl)c3C)C2)C1` (single isomer, unassigned) [Example 49a, 1-(6-(4-(2-chloro-5-hydroxy-3,6-dimethylphenyl)-5-methyl-3-(8-(oxetan-3-yl)-5,8-diazaspiro[3.5]nonan-5-yl)-1H-pyrazol-1-yl)-2-azaspiro[3.3]heptan-2-yl)prop-2-en-1-one], the IC50 is 1790 nM.
With `C=CC(=O)N1CC2(CC(n3nc(N4CCn5nccc5C4C)c(-c4c(Cl)c(C)cc5[nH]ncc45)c3C)C2)C1` (single isomer, unassigned) [Example 42a, 1-(6-(4-(5-chloro-6-methyl-1H-indazol-4-yl)-5-methyl-3-(4-methyl-6,7-dihydropyrazolo[1,5-a]pyrazin-5(4H)-yl)-1H-pyrazol-1-yl)-2-azaspiro[3.3]heptan-2-yl)prop-2-en-1-one], the IC50 is above 50000 nM.
For `C=CC(=O)N1CC2(CC(n3nc(N4CCN(CCOC)CC45CCC5)c(-c4c(Cl)c(Cl)cc5[nH]ncc45)c3C)C2)C1` (single isomer, unassigned) [Example 76b, 1-(6-(4-(5,6-dichloro-1H-indazol-4-yl)-3-(8-(2-methoxyethyl)-5,8-diazaspiro[3.5]nonan-5-yl)-5-methyl-1H-pyrazol-1-yl)-2-azaspiro[3.3]heptan-2-yl)prop-2-en-1-one], the IC50 turned out to be 10 nM.
On to `C=CC(=O)N1CC2(CC(n3nc(N4CCN(CCN5CCOCC5=O)C[C@]4(C)CC)c(-c4c(Cl)c(C)cc5[nH]ncc45)c3C)C2)C1` (single isomer, unassigned) [Example 177b], for which the IC50 was 1700 nM.
In the case of `C=CC(=O)N1CC2(CC(n3nc(N4CCN(C[C@@H]5COCCO5)C[C@]4(C)CCOC)c(-c4c(Cl)c(C)cc5[nH]ncc45)c3C)C2)C1` (single isomer, unassigned) [Example 85b], the IC50 came to 8 nM.
For `C=CC(=O)N1CC2(CC(n3nc(N4CC[C@@H](CN5C[C@H](O)C[C@@H](F)C5)CC4(C)C)c(-c4c(Cl)c(Cl)cc5[nH]ncc45)c3C)C2)C1` (single isomer, unassigned) [Example 300b, 1-(6-(4-(5,6-dichloro-1H-indazol-4-yl)-3-((R)-4-(((3R*,5R*)-3-fluoro-5-hydroxypiperidin-1-yl)methyl)-2,2-dimethylpiperidin-1-yl)-5-methyl-1H-pyrazol-1-yl)-2-azaspiro[3.3]heptan-2-yl)prop-2-en-1-one], the half-maximal inhibitory concentration (IC50) is 13 nM.
Under `C=CC(=O)N1CC2(CC(n3nc(N4CCN(C5CCOCC5)C[C@]4(C)COC)c(-c4c(Cl)c(Cl)cc5[nH]ncc45)c3C)C2)C1` (single isomer, unassigned) [Example 150a] stands 252 nM.
`C=CC(=O)N1CC2(CC(n3nc(N4CC[C@@H](CN5CCn6cnnc6C5)CC4(C)C)c(-c4c(Cl)c(Cl)cc5[nH]ncc45)c3C)C2)C1` (single isomer, unassigned) [Example 250a]: the IC50 was found to be 405 nM.
For the molecule `C=CC(=O)N1CC2(CC(n3nc(N4CCN(C5COC5)C5COCC54)c(-c4c(Cl)c(C)cc5[nH]ncc45)c3C)C2)C1` (stereo not drawn) [Example 137a, 1-(6-(4-(5-chloro-6-methyl-1H-indazol-4-yl)-5-methyl-3-((4aS*,7aS*)-4-(oxetan-3-yl)hexahydrofuro[3,4-b]pyrazin-1(2H)-yl)-1H-pyrazol-1-yl)-2-azaspiro[3.3]heptan-2-yl)prop-2-en-1-one], the IC50 is above 5000 nM.
For `C=CC(=O)N1CC2(CC(n3nc(N4CC[C@@H](CN5CCOC[C@@H](O)C5)CC4(C)C)c(-c4c(Cl)c(Cl)cc5[nH]ncc45)c3C)C2)C1` (single isomer, unassigned) [Example 292b], the IC50 turned out to be 27 nM.
Turning to `C=CC(=O)N1CC2(CC(n3nc(N4CCN(c5cnn(C)c5)CC4(C)C)c(-c4c(Cl)c(C)cc5[nH]ncc45)c3C)C2)C1` (single isomer, unassigned) [Example 193b, 1-(6-(4-(5-Chloro-6-methyl-1H-indazol-4-yl)-3-(2,2-dimethyl-4-(1-methyl-1H-pyrazol-4-yl)piperazin-1-yl)-5-methyl-1H-pyrazol-1-yl)-2-azaspiro[3.3]heptan-2-yl)prop-2-en-1-one], the IC50 was 28 nM.

Source of the values: patent publication US20240317721A1, “PYRAZOLYL DERIVATIVES AS INHIBITORS OF THE KRAS MUTANT PROTEIN” (NOVARTIS AG, priority 2021, published 2024).
